Source: patent EP0294538B1, “Use of nigericin for the production of a medicament for the treatment of viral diseases” (S O "PHARMACHIM", priority 1987, dated 1988)

Assays:
[1] = system: Virus-Erkrankungen des Auges; assay: Clinical study of different treatments of viral diseases of the eye (Table 1); type: in vivo, Patienten
Source text: Ergebnisse der klinischen Untersuchungen von Nigerizin (s. Tabelle 1).
Das Nigerizin enthaltende Arzneimittel in Form von Tropfen, Salbe und Suppositorien wurde an insgesamt 711 Patienten mit verschiedenen Virus-Erkrankungen: Labial-, Fazial-, Genital- und Gluteal- oder Femoralherpes, Herpes und Adenovirus-Keratitis und Konjunktivitis, Vaginitis, Endocervicitis und Exocervicitis mit Herpes-Ethiologie, Herpes Zoster der Augen und Haut angewendet.
Nigerizin-Tropfen wurden an 112 Patienten in drei Augenkliniken des Medizinischen Akademie-Forschungsinstitutes für Augenkrankheiten, Lehrstuhl für Ophthalmologie an den Hochschulen für Medizin in Varna und in Pleven verabreicht.

[2] = system: Herpes-Erkrankungen; assay: Efficacy of nigericin ointment depending on the start of treatment (Table 4); type: in vivo, Patienten; conditions: treatment begun on the first day; analysis of 88 patients
Source text: Es wurde die Abhängigkeit zwischen der Wirksamkeit der Behandlung mit Nigerizin-Salbe und dem Beginn der Behandlung untersucht (siehe Tabelle 4). TABELLE 4
Bei 140 mit Nigerizin-Salbe behandelten Patienten wurde eine Wirksamkeit von 90% erreicht, verglichen mit weniger als 20% für die mit Placebo behandelten Kontrollgruppe. Die eingehende Analyse der Ergebnisse an 88 Patienten zeigt, daß es sehr wichtig ist, bei Nigerizin früh mit der Behandlung zu beginnen, wobei am ersten Tag die Wirksamkeit bis zu 100% beträgt. Bei den Patienten, die mit einer Placebo-Salbe behandelt wurden, wird die Wirksamkeit nicht durch die Phase der Erkrankung beeinflußt, was ihren nicht spezifischen Charakter beweist.

[3] = system: Auge eines Kaninchens; type: in vivo, Kaninchen; conditions: topical; doses 20 times the therapeutic concentrations; 10 days
[4] = Acute toxicity by injection (LD50); parameters: species or system weißen Ratten und Mäusen; conditions: in vivo, white rats and mice, read-out: akute Toxizität (=LD₅₀)
Procedure: (§1) Bei Spritzenbehandlung: Die akute Toxizität bei weißen Ratten und Mäusen (=LD₅₀) liegt im Bereich von 55 bis 66 mg/kg. Die chronische sechsmonatige Toxizität in Dosen bis 1/10 der LD₅₀ beträgt bis zu 5,6 mg/kg. […] Die pharmakologische Untersuchung zeigte gute Toleranz bei verschiedenen Tieren bei Konzentrationen bis zu 1/10 der LD₅₀.

[5] = system: Ratten; assay: Chronic six-month toxicity by injection; type: in vivo; conditions: six months, doses up to 1/10 of LD₅₀ (up to 5,6 mg/kg), blood, coagulation, blood and urine biochemistry, liver, histology, general state, weight, behaviour
Procedure: as §1

[6] = system: trächtigen weißen Ratten; assay: Embryotoxicity and teratogenicity by injection; type: in vivo; conditions: doses up to 5,6 mg/kg, pregnant white rats
Procedure: as §1

[7] = system: verschiedenen Tieren; assay: Pharmacological tolerance study; type: in vivo; conditions: various animals; up to 1/10 of LD₅₀
Procedure: as §1

[8] = system: zentralen Nervensystem; assay: Safety pharmacology: central nervous system; conditions: in vivo
Procedure: as §1

[9] = system: Herz-Blutgefäß-System von Katzen; assay: Safety pharmacology: cardiovascular system (blood pressure, electrocardiogram); type: in vivo; conditions: cats; blood pressure and electrocardiograms
Procedure: as §1

[10] = system: Glattmuskulatur des Magen-Darm-Wegs; assay: Safety pharmacology: smooth muscle of the gastrointestinal tract; type: in vivo, Ratten und Kaninchen; conditions: rats and rabbits
Procedure: as §1

[11] = Mutagenicity
Procedure: as §1

[12] = Adenovirus-Keratokonjunktivitis

Structure (SMILES)	Dauer der Behandlung ([1]; compared with Idoxyridin, immune and physico-chemical means)	Wirksamkeit [2] [%]	toxische Wirkung am Auge [3]	LD50 [4] [mg/kg]	chronische sechsmonatige Toxizität: Abweichungen der behandelten Ratten [5]	embryotoxische und terratogene Wirkung [6]	Toleranz [7]	Veränderungen im zentralen Nervensystem [8]	Wirkung auf das Herz-Blutgefäß-System [9]	Funktionen der Glattmuskulatur des Magen-Darm-Wegs [10]	Mutagenität [11]	Dauer der Behandlung (Tage) [1, 12]	Prozent der günstigen Beeinflußung [1, 12] [Prozent]	Dauer der Behandlung (Tage) ([1]; Oberflächen-Herpeskeratitis)	Prozent der günstigen Beeinflußung ([1]; Oberflächen-Herpeskeratitis) [Prozent]	Dauer der Behandlung (Tage) ([1]; Tiefe/Ulzerose/ Keratitis)	Prozent der günstigen Beeinflußung ([1]; Tiefe/Ulzerose/ Keratitis) [Prozent]	Durchschnittsaufenthalt im Krankenhaus (Tage) ([1]; all clinical forms of the treatment group)
COC1CC(CC2CCC(C)C(C(C)C(=O)O)O2)OC2(OC(C)(C3CCC(C)(C4OC(C5OC(O)(CO)C(C)CC5C)CC4C)O3)CC2C)C1C (stereo not drawn) [Nigerizin]	um mehr als zweimal verringert	≤ 100	keine toxische Wirkung	55 to 66	keine Abweichungen	keine embryotoxische und terratogene Wirkung	gute Toleranz	keine Veränderungen	keine Wirkung	ändert nicht	keine Mutagenität							
O=c1[nH]c(=O)n([C@H]2C[C@H](O)[C@@H](CO)O2)cc1I [Idoxyridin, 2'-desoxy-5-iodo-uridin]												9,3 Tage	41	17,9 Tage	82	25,2 Tage	51	23,6 Tage
